Data on 3 compounds can be found in paper PMC6804006, “Synthesis, Biological Activities and Docking Studies of Novel 4-(Arylaminomethyl)benzamide Derivatives as Potential Tyrosine Kinase Inhibitors” (Molecules, 2019).

A value given as a limit tells only on which side of the number the result lay.

Series [1] addresses T1, PDGFRb (Homo sapiens, UniProt P09619).
T1 construct: purchased Promega
Put plainly: ADP-Glo kinase inhibitory assay, PDGFRb. As to conditions: read-out: % Inhibition at 10 nM, PDGFRb. It counts as biochemical. In a few lines:
(§1)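 Recombinant human kinases from a TK selectivity panel; ADP-Glo luminescence of ADP formed, 60 min reaction at 23 °C, 1% DMSO final. Run in duplicate per concentration; activity normalised to the signal difference between no-kinase and kinase wells.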
A general note: In ADP-Glo the light output rises with the ADP produced.

Series [2] concerns MCF-7 (breast adenocarcinoma). Put plainly: MTT anti-proliferative assay, MCF-7. It counts as cell-based. As to conditions: Homo sapiens, MCF7, 48 h, 50% growth inhibition. The procedure:
(§2) Each in vitro experiment was performed at least in triplicate, and the standard deviation of absorbance was less than 10% of the mean. For the in vitro assays, a stock solution (1% DMSO in the appropriate buffer with the tested compound diluted under sonication) was prepared from which several dilutions were made with the appropriate buffer.
(§3) Human cell lines were obtained from the Institute of Cytology, Russian Academy of Sciences. […] Cellular sensitivities to clofarabine and its lipid derivatives were measured with the MTT assay. Cells were plated in triplicate in 96-well plates (10^5 cells/well for suspended cell cultures and 5 × 10^3 cells/well for monolayer cultures); on the same day (suspended cell cultures) or on the following day (monolayer cultures), compounds were added at the appropriate dilutions. Plates were incubated under standard conditions for 48 h. Thereafter, 10 μL of MTT (Sigma) in phosphate-buffered saline (5 mg/mL) was added. The plates were incubated for an additional 4 h, and 150 μL of dimethyl sulfoxide (DMSO) was added to dissolve the formazan crystals. The optical density was read on a HALO MPR-95 Microplate Reader (Dynamica Scientific Ltd., Australia) at 570 nm. The antiproliferative effects were determined as degrees of inhibition of tumor cells (%).

The target of series [3] is T2, IGF1R (Homo sapiens, UniProt P08069).
T2 construct: purchased Promega
T2 sequence (P08069 31-1367): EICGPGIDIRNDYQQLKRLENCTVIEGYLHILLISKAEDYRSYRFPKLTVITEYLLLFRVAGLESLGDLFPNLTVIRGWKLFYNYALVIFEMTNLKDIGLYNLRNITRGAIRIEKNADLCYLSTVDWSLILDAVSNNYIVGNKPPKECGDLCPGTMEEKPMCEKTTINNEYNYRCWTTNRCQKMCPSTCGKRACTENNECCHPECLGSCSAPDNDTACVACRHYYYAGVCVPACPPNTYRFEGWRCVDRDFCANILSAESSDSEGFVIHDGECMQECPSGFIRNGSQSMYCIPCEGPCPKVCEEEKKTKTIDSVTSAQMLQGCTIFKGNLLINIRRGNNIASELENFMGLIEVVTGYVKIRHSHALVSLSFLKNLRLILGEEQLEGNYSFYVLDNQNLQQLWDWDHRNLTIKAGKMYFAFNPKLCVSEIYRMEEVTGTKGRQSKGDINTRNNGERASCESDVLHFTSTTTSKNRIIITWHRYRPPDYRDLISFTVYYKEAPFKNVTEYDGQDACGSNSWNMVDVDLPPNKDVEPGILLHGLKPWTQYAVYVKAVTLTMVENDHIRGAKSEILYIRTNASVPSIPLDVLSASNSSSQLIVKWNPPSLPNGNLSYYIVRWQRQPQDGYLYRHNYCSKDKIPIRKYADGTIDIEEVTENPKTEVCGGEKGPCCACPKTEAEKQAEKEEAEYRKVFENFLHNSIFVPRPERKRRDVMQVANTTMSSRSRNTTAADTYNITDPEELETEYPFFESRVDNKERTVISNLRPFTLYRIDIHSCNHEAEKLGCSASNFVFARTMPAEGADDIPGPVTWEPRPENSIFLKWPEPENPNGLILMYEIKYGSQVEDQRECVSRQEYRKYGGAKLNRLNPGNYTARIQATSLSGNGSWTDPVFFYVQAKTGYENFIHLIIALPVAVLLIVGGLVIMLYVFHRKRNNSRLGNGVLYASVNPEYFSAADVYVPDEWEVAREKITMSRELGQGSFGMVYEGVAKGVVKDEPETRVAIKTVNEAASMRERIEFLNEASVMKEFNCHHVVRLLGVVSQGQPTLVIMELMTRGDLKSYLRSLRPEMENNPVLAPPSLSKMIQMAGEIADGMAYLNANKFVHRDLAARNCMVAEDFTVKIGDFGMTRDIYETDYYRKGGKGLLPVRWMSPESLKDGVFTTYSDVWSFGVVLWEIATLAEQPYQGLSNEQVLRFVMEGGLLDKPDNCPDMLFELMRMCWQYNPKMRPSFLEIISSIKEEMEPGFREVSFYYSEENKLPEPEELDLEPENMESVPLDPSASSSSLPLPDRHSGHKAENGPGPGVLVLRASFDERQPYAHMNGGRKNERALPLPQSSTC
Put plainly: ADP-Glo kinase inhibitory assay, IGF1R. The following applies: read-out: % Inhibition at 10 nM, IGF1R. In kind it is biochemical. The procedure, abridged: as §1

In series [4] the test system is HL-60 (promyelocytic leukemia). The experiment in a line: MTT anti-proliferative assay, HL-60. It counts as cell-based, human. The following applies: Homo sapiens, HL-60, 48 h, 50% growth inhibition. (In general: Tetrazolium assays rely on reduction of a dye to a coloured formazan, in cell work by metabolically active cells.)
The subject of series [5] is A549 (lung carcinoma). The experiment in a line: MTT anti-proliferative assay, A-549. It counts as cell-based. The following applies: Homo sapiens, 48 h, 50% growth inhibition. The procedure: as §2, §3
The subject of series [6] is HeLa (cervix carcinoma). Put plainly: MTT anti-proliferative assay, HeLa. In kind it is cell-based. The following applies: Homo sapiens, 48 h, 50% growth inhibition. The procedure:
as §2, §3

Series [7] deals with OKP-GS (carcinoma of the kidney). The experiment in a line: MTT anti-proliferative assay, OKP-GS. In kind it is cell-based. As to conditions: Homo sapiens, 48 h, 50% growth inhibition. The method, then:
as §2, §3

Series [8] addresses T3, HER-4 (Homo sapiens, UniProt Q15303).
T3 construct: purchased Promega
The experiment in a line: ADP-Glo kinase inhibitory assay, HER-4. In kind it is biochemical. The following applies: for inhibitory activity in relation to HER-4, in words: 10 nM, compared with imatinib; for inhibition at 0.01 µM: read-out: % Inhibition at 10 nM, HER-4. The procedure, abridged: as §1

For series [9], the target named is T4, HER-2 (Homo sapiens, UniProt P04626).
T4 construct: purchased Promega
Put plainly: ADP-Glo kinase inhibitory assay, HER-2. It counts as biochemical. As to conditions: read-out: % Inhibition at 10 nM, HER-2. In a few lines: as §1

For series [10], the target named is T5, PDGFRa (Homo sapiens, UniProt P16234).
T5 construct: purchased Promega
T5 sequence (P16234 24-1089): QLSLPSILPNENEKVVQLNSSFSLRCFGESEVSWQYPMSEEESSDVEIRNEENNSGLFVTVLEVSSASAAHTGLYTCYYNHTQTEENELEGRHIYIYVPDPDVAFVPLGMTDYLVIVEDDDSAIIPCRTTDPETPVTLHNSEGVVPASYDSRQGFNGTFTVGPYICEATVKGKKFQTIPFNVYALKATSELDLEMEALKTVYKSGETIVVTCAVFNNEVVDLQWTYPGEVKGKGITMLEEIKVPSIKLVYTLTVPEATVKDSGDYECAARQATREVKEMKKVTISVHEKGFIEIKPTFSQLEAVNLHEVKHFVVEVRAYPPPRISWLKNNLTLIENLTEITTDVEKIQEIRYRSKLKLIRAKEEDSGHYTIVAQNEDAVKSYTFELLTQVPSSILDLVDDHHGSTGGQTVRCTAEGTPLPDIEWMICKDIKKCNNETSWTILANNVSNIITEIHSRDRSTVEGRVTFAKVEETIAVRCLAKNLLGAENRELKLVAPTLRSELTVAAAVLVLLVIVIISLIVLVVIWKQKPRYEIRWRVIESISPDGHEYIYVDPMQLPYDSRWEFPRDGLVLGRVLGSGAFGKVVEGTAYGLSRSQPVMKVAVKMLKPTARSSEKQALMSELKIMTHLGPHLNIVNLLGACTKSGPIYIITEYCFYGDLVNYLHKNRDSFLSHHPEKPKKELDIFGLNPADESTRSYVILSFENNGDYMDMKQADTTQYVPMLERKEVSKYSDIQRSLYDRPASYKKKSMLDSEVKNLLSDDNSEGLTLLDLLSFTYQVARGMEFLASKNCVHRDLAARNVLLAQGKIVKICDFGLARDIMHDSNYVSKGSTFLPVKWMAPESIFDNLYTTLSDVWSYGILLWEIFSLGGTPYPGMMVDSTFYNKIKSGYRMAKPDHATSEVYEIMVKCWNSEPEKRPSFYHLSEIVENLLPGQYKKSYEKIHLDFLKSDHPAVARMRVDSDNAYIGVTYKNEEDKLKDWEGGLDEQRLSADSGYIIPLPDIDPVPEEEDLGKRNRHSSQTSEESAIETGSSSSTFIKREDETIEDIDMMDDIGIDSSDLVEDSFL
Put plainly: ADP-Glo kinase inhibitory assay, PDGFRa. It counts as biochemical. As to conditions: read-out: % Inhibition at 10 nM, PDGFRa. In a few lines: as §1

In series [11] the target is T6, EGFR (Homo sapiens, UniProt P00533).
T6 construct: purchased Promega
Put plainly: ADP-Glo kinase inhibitory assay, EGFR. In kind it is biochemical. As to conditions: read-out: % Inhibition at 10 nM, EGFR. In a few lines: as §1

Series [12] deals with T7, KDR (VEGFR2) (Homo sapiens, UniProt P35968).
T7 construct: purchased Promega
The experiment in a line: ADP-Glo kinase inhibitory assay, KDR. In kind it is biochemical. The following applies: 10 nM.

Series [13] concerns the target T8, InsR (Homo sapiens, UniProt P06213).
T8 construct: purchased Promega
The experiment in a line: ADP-Glo kinase inhibitory assay, InsR. In kind it is biochemical. As to conditions: for inhibition at 0.01 µM: read-out: % Inhibition at 10 nM, InsR. The procedure, abridged: as §1

Series [14] relates to RPMI 1788 (B lymphocyte, human normal cells). Put plainly: MTT assay on normal cells RPMI 1788. In kind it is cell-based. The following applies: MTT 48 h. In a few lines: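 Cells seeded at 10^5/well (suspension) or 5 × 10^3/well (monolayer), compounds added same day or next day, then 48 h at 37 °C, 5% CO2; MTT added for further 4 h, formazan dissolved in DMSO, OD read at 570 nm. Value is % growth inhibition; triplicate wells.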

For series [15], the system named is K-562 (chronic myelogenous leukemia). The experiment in a line: MTT anti-proliferative assay, K-562. In kind it is cell-based. As to conditions: Homo sapiens, K562, 48 h, 50% growth inhibition.

A word on the inhibition: it is the share of the control response that was lost under treatment. In general, IC50 refers to the midpoint of a concentration-inhibition curve. Low readings indicate higher potency, high ones lower potency. Usually melting point stands for the temperature, or range, at which the solid turns liquid.

T1 sequence (P09619 33-1106): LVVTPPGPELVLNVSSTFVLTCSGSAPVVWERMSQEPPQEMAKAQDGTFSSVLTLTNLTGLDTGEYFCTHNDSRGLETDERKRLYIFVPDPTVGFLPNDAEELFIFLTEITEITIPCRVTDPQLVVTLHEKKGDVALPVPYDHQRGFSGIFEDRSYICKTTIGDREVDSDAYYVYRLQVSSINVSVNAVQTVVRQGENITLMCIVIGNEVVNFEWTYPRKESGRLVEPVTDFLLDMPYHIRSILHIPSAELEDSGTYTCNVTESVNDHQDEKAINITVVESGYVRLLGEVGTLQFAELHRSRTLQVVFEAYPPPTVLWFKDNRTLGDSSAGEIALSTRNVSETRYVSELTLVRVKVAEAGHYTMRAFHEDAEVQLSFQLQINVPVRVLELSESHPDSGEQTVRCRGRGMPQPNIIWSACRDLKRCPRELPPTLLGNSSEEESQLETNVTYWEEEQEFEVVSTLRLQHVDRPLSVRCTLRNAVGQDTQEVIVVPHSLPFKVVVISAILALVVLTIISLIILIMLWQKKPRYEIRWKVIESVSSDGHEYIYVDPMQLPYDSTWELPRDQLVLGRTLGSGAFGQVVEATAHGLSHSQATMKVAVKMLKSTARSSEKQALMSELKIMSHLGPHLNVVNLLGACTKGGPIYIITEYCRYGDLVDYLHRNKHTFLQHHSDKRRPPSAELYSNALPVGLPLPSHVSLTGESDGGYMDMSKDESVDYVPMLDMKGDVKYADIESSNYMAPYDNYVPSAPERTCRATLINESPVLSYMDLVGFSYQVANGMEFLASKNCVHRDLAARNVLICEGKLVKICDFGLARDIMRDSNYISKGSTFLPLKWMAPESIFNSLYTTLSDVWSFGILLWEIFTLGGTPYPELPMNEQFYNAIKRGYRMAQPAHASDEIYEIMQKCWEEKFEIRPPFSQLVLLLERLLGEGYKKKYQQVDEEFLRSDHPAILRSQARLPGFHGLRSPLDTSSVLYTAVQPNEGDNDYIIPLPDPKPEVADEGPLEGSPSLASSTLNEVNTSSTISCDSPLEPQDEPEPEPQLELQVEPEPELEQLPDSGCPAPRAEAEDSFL
T8 sequence (P06213 28-1382): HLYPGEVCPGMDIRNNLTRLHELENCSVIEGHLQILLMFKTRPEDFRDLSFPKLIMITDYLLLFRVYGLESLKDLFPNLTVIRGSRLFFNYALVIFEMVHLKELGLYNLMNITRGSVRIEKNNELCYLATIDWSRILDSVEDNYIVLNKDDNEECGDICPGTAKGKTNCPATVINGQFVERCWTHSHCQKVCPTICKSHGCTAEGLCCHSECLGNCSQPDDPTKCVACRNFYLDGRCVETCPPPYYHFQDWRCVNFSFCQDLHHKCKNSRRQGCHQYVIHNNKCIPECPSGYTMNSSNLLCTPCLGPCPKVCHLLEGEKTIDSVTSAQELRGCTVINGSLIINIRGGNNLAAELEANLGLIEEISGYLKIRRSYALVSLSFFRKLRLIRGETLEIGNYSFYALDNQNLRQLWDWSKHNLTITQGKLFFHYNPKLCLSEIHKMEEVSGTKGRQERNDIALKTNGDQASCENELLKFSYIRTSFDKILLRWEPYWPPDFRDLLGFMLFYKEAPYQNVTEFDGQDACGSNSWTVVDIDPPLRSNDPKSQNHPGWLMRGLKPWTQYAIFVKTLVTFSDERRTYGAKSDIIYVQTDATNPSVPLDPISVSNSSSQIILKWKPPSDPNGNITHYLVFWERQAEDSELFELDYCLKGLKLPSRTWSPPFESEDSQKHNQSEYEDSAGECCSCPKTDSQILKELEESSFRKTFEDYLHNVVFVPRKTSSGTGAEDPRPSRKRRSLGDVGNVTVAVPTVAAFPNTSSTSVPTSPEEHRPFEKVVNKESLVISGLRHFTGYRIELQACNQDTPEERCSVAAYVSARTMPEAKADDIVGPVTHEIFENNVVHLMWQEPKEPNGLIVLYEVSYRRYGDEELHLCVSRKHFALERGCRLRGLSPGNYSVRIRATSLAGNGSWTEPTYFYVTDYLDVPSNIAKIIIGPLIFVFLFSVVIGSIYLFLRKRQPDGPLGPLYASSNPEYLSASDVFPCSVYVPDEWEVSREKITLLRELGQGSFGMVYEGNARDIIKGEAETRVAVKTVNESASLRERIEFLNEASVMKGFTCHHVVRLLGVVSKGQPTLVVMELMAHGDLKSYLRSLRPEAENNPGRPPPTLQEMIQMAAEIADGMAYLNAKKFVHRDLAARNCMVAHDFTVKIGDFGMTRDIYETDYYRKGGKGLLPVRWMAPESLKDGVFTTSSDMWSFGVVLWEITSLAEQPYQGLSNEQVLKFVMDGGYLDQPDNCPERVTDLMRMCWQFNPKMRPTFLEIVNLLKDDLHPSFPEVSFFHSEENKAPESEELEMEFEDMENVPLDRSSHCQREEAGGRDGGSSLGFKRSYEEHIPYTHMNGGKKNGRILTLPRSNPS

`CNC(=O)c1cc(Oc2ccc(NCc3ccc(C(=O)Nc4cc(-n5cnc(C)c5)cc(C(F)(F)F)c4)cc3)cc2)ccn1` [Compound 10, N-methyl-4-(4-((4-((3-(4-methyl-1H-imidazol-1-yl)-5-(trifluoromethyl)phenyl)carbamoyl)benzyl)amino)phenoxy)picolinamide] registered a melting point of 153 to 156 °C. Besides, in series [1], the inhibition at 0.01 µM was 0%. Moreover, in series [2], the IC50 was more than 100 µM. In addition, the inhibition at 0.01 µM in series [3] stood at 0%. Moreover, in series [4], inhibition was half-maximal at 8.2 µM (IC50). Moreover, the IC50 in series [5] is more than 100 µM. This compound also came in with an IC50 in [6] of more than 100 µM. In addition, in series [7], it took 81 µM to reach half-maximal inhibition (IC50). Further, in [8], the “inhibitory activity in relation to HER-4, in words” value is recorded as “comparable to imatinib” and the inhibition at 0.01 µM came to 51%. The inhibition at 0.01 µM in series [9] came out at 0%. Further, the inhibition at 0.01 µM in [10] amounted to 66%. Besides, the inhibition at 0.01 µM in series [11] amounted to 65%. The inhibition at 0.01 µM in series [12] was found to be 27%. Also, the inhibition at 0.01 µM in series [13] is 46%. In addition, in [14], the inhibition at 100 µM is 10.4%. Moreover, the IC50 in series [15] worked out at 40 µM.
For `COc1ccc(C(=O)N2CCN(Cc3ccc(C(=O)Nc4cc(-n5cnc(C)c5)cc(C(F)(F)F)c4)cc3)CC2)cc1` [Compound 28i, 4-{[4-(4-Methoxybenzoyl)piperazin-1-yl]methyl}-N-[3-(4-methyl-1H-imidazol-1-yl)-5-(trifluoromethyl)phenyl]benzamide], the melting point fell in the range of 98 to 102 °C. Moreover, in series [1], the inhibition at 0.01 µM worked out at 0%. This compound had an IC50 in [2] of 63 µM. Also, the inhibition at 0.01 µM in [3] amounted to 3%. Besides, half-maximal inhibition in series [4] (IC50) was put at 38 µM. In series [5], this compound yielded an IC50 of more than 100 µM. 11.5 µM corresponded to half-maximal inhibition in series [6] (IC50). The compound also registered an IC50 in [7] of 78 µM. Moreover, the inhibition at 0.01 µM in [8] worked out at 0%. For the same compound, the inhibition at 0.01 µM in [9] was 0%. In [10], the inhibition at 0.01 µM was found to be 0%. The inhibition at 0.01 µM in [11] turned out to be 0%. This compound also displayed an inhibition at 0.01 µM in series [12] of 0%. Besides, the “selectivity for the gene insulin receptor, in words” value in [13] (10 nM, panel of eight receptor tyrosine kinases) is “high selectivity”. In addition, in series [13], the inhibition at 0.01 µM amounted to 52%. In series [14], this compound returned an inhibition at 100 µM of 6.32%. In series [15], this compound came in with a 50% inhibitory concentration (IC50) of 30.7 µM.
As to `Cc1cn(-c2cc(NCc3ccc(C(=O)Nc4cccc(C(F)(F)F)c4)cc3)cc(C(F)(F)F)c2)cn1` [Compound 13, 4-({[3-(4-Methyl-1H-imidazol-1-yl)-5-(trifluoromethyl)phenyl]amino}methyl)-N-[3-(trifluoromethyl)phenyl]benzamide], the melting point was in the range of 129 to 131 °C. Also, the inhibition at 0.01 µM in [1] was found to be 8%. For the same compound, the IC50 in series [2] is 69 µM. Moreover, the inhibition at 0.01 µM in series [3] is 0%. In series [4], this compound showed an IC50 of 46 µM. For the same compound, the midpoint of inhibition in series [5], the IC50, lay at 55 µM. The same compound registered an IC50 in [6] of 57.5 µM. This compound showed an IC50 in series [7] of 52 µM. Moreover, in [8], the “inhibitory activity in relation to HER-4, in words” value is reported as “comparable to imatinib” and the inhibition at 0.01 µM came to 54%. Moreover, the inhibition at 0.01 µM in series [9] was 34%. In [10], the inhibition at 0.01 µM was 59%. Also, the inhibition at 0.01 µM in [11] turned out to be 92%. In [12], this compound came in with an inhibition at 0.01 µM of 20%. The inhibition at 0.01 µM in [13] was found to be 0%. In series [14], this compound had an inhibition at 100 µM of 9.36%. It took 5.6 µM to reach half-maximal inhibition in [15] (IC50).
